Results on ten molecules are retold here after patent US8168592B2 (Amgen Inc., priority 2005, dated 2012).

One may read the fraction remaining as what is left of the initial amount, in per cent. What is called MRT is the average time that molecules of a dose stay in the body. What is called Vd is a proportionality between amount in the body and measured concentration, not a real space. The clearance is a measure of how efficiently the substance is removed, as volume per time. One may read the half-life as the time in which the quantity being followed falls by half. Usually Ki stands for the equilibrium dissociation constant of an inhibitor or competing ligand from its target. For orientation: IC50 means the concentration that inhibits the measured activity by half.

Data set [1] can be described thus: solubility in aqueous conjugation buffers. Type of data set: physicochemical. On the procedure:
Co-solvent mediated conjugation of vehicle to CGRP peptide antagonists. […] In an attempt to better solubilize these less soluble peptides during the conjugation reaction, and thereby improve conjugate yields, a variety of alcohol co-solvents were tested in the conjugation reaction.

Data set [2] is described as follows: in vitro stability in 10% human plasma, LC-MS/MS. In kind it is in vitro ADME. The settings on record: room temperature, 100 ng/ml. On the procedure:
Consequently, the stability of select, non-PEGylated analogs was evaluated in vitro in the presence of 10% rat or human plasma. Briefly, samples of each peptide were diluted to 100 ng/ml into PBS containing 10% of rat or human plasma. Each sample was then incubated at room temperature and analyzed by LC-MS/MS to quantitate the intact peptide remaining at select time points over 6 hours.

A short description of data set [3]: in vitro stability in 5% mouse plasma, sandwich ELISA.
Description: Peptide samples at 2 mg/ml in PBS were spiked with 5% mouse plasma and analyzed by sandwich ELISA (as described in Example 3 herein above) over 48 hours at room temperature. Peptide integrity was determined by sandwich ELISA requiring intact peptide termini.
Data set [4] is described as follows: monkey pharmacokinetic studies. The settings on record: cynomolgus monkey, in vivo, iv, 6 mg/kg.
Description: Monkey pharmacokinetic studies. […] A complete blood chemistry panel was performed on each monkey prior to each study day to obtain baseline values and ensure hematological recovery. A catheter was placed in the cephalic vein of three male Cynomolgus monkeys (Macaca fascicularis) for blood sampling during the study. For the intravenous (iv) leg of the study, a catheter was also placed in a saphenous vein for infusion of test compound. On each study day, the monkeys were placed in restraining chairs for the first 4 h of the study to facilitate drug administration and blood sampling. For administration of antagonist, each monkey received solubilized peptide (dose and SEQ ID listed in Table 11 below) either as a 30-min intravenous infusion (4 mL/kg/h) or as a single subcutaneous bolus (approx. 1.0 mL/animal). Blood samples were collected from each study animal at various times during and after drug administration, plasma samples (100 μL) were isolated by centrifugation and stored at −70° C. until analysis. For monkeys receiving intravenous infusion, such a sample was also taken at 20 min during the infusion.
In data set [5] the target is T1, CGRP1 receptor (human neuroblastoma cell (SK-N-MC) membrane) (Homo sapiens, UniProt O60894+Q16602).
T1 construct: human neuroblastoma cell (SK-N-MC) membrane suspension; purchased PerkinElmer; host or cells: SK-N-MC human neuroblastoma cell membranes (endogenous receptor)
Description: CGRP1 binding assay (125I-hαCGRP displacement). On the procedure:
CGRP1 binding experiments. […] The plates were incubated at room temperature for 2 hour with shaking at 60 rpm, then the contents of each well were filtered over 0.5% polyethyleneimine (PEI)-treated (at least one hour) GF/C 96-well filter plates. The GF/C filter plates were washed 6 times with ice-cold 50 mM Tris, pH 7.5 and dried in an oven at 55 C for 1 hour. The bottoms of the GF/C plates were then sealed, and 40 μl Microscint™ 20 was added to each well, then the tops of the GF/C plates were sealed with TopSeal™-A, a press-on adhesive sealing film, and the GF/C plates were counted with TopCount NXT (Packard). The data were analyzed by using ActivityBase (IDBS) or Prizm (GraphPad) software.

The next data set concerns the target T2, CGRP1 receptor (Homo sapiens, UniProt O60894+Q16602).
T2 construct: SK-N-MC cells express CRLR and RAMP1, which form CGRP1 receptor; endogenous in cells; host or cells: SK-N-MC human neuroblastoma cells
In words: in vitro CGRP1 receptor mediated cAMP assay in SK-N-MC cells. In kind it is cell-based. As to conditions: read-out: IC50. The method in brief: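 Human SK-N-MC neuroblastoma cells, which endogenously express CRLR/RAMP1, were plated two days before assay and preincubated in plasma-free medium for 15 minutes at room temperature. Cells were then lysed for 30 minutes at 37° C, and cAMP in the lysates was quantified by competitive cAMP-AP chemiluminescent ELISA.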
On the technique in general: cAMP levels reflect the balance of adenylyl cyclase and phosphodiesterase activity.

Where two headings read alike, the source gives them in different places. Square brackets hold non-standard residues; d marks the D form. Peptide text beside a SMILES is read from it. 1Nal = N[C@@H](Cc1cccc2ccccc12)C(=O)O; hArg = N=C(N)NCCCC[C@H](N)C(=O)O; Cit = NC(=O)NCCC[C@H](N)C(=O)O Some results are limits rather than exact numbers.

T1 sequence (Q16602 23-461): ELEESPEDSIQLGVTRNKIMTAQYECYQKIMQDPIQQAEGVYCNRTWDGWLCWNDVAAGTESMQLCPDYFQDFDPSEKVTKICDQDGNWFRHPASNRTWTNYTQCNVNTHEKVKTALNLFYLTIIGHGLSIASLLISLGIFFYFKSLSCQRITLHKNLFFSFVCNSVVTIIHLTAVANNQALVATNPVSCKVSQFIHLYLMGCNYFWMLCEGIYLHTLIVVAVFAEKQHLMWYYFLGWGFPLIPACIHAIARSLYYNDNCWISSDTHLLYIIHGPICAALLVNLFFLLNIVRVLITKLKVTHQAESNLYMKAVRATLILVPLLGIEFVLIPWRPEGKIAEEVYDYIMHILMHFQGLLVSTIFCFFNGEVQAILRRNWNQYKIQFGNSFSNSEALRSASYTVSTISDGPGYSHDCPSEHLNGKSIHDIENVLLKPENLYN
T1 sequence (O60894 27-148): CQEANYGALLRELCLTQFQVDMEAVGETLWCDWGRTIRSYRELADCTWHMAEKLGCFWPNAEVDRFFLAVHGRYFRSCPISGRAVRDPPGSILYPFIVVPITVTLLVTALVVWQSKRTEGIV
T2 sequence (Q16602 23-461): as the sequence (Q16602 23-461) above
T2 sequence (O60894 27-148): as the sequence (O60894 27-148) above

`CC(=O)N[C@@H](Cc1c[nH]c2ccccc12)C(=O)N[C@H](C(=O)N[C@H](C(=O)N[C@@H](Cc1cnc[nH]1)C(=O)N[C@@H](CCCNC(N)=O)C(=O)N[C@@H](CC(C)C)C(=O)N[C@@H](C)C(=O)NCC(=O)N[C@@H](CC(C)C)C(=O)N[C@@H](CC(C)C)C(=O)N[C@@H](CO)C(=O)N[C@@H](CCCNC(N)=O)C(=O)N[C@@H](CO)C(=O)NCC(=O)NCC(=O)N[C@H](C(=O)N[C@H](C(=O)N[C@@H](CCCCNC(=N)N)C(=O)N[C@@H](CCCCN)C(=O)N[C@@H](CC(N)=O)C(=O)N[C@@H](Cc1ccccc1)C(=O)N[C@H](C(=O)N1CCC[C@H]1C(=O)N[C@H](C(=O)N[C@@H](CC(=O)O)C(=O)N[C@H](C(=O)NCC(=O)N1CCC[C@H]1C(=O)N[C@@H](Cc1ccccc1)C(=O)N[C@@H](C)C(=O)N[C@@H](Cc1ccccc1)C(N)=O)C(C)C)[C@@H](C)O)C(C)C)C(C)C)C(C)C)[C@@H](C)O)C(C)C` [SEQ ID NO:739]: in data set [1], the solubility in words entry was “relatively insoluble”.
Regarding `CC(=O)N[C@@H](Cc1c[nH]c2ccccc12)C(=O)N[C@H](C(=O)N[C@H](C(=O)N[C@@H](Cc1cnc[nH]1)C(=O)N[C@@H](CCCN=C(N)N)C(=O)N[C@@H](CC(C)C)C(=O)N[C@@H](C)C(=O)NCC(=O)N[C@@H](CC(C)C)C(=O)N[C@@H](CC(C)C)C(=O)N[C@@H](CO)C(=O)N[C@@H](CCCN=C(N)N)C(=O)N[C@@H](CO)C(=O)NCC(=O)NCC(=O)N[C@H](C(=O)N[C@H](C(=O)N[C@@H](CCCN=C(N)N)C(=O)N[C@@H](CCCCN)C(=O)N[C@@H](CC(N)=O)C(=O)N[C@@H](Cc1ccccc1)C(=O)N[C@H](C(=O)N1CCC[C@H]1C(=O)N[C@H](C(=O)N[C@@H](CC(=O)O)C(=O)N[C@H](C(=O)NCC(=O)N1CCC[C@H]1C(=O)N[C@@H](Cc1ccccc1)C(=O)N[C@@H](C)C(=O)N[C@@H](Cc1ccccc1)C(N)=O)C(C)C)[C@@H](C)O)C(C)C)C(C)C)C(C)C)[C@@H](C)O)C(C)C` [SEQ ID NO: 7], the “% Remaining” value in data set [2] (0 h) was 100.0%. This molecule also showed a share remaining at 0.17 h, 100 ng/ml in data set [2] (0.17 h) of 60.3%. The molecule also showed a share remaining at 0.5 h, 100 ng/ml in data set [2] (0.5 h) of 13.8%. In addition, the share remaining at 1 h, 100 ng/ml in data set [2] (1 h) turned out to be 4.9%. This molecule also gave a share remaining at 2 h, 100 ng/ml in data set [2] (2 h) of 0%. In data set [2] (3 h), this molecule returned an amount remaining at 3 h, 100 ng/ml of 0%. Further, the fraction remaining at 4 h, 100 ng/ml in data set [2] (4 h) was 0%. Also, the fraction remaining at 5 h, 100 ng/ml in data set [2] (5 h) stood at 0%. For the same molecule, the fraction remaining at 6 h, 100 ng/ml in data set [2] (6 h) was found to be 0%. Moreover, in data set [3], the recovery at 0 h, 2 mg/ml worked out at 112 ± 1.8%; the recovery at 4 h, 2 mg/ml amounted to 46.1 ± 60.1%; the recovery at 24 h, 2 mg/ml turned out to be 2.51 ± 0.573%; the recovery at 48 h, 2 mg/ml turned out to be 1.81 ± 0.754%.
In the case of `CC(=O)N[C@@H](Cc1c[nH]c2ccccc12)C(=O)N[C@H](C(=O)N[C@H](C(=O)N[C@@H](Cc1c[nH]cn1)C(=O)N[C@@H](CCCNC(N)=O)C(=O)N[C@@H](CC(C)C)C(=O)N[C@@H](C)C(=O)NCC(=O)N[C@@H](CC(C)C)C(=O)N[C@@H](CC(C)C)C(=O)N[C@@H](CO)C(=O)N[C@@H](CCCNC(N)=O)C(=O)N[C@@H](CO)C(=O)NCC(=O)NCC(=O)N[C@H](C(=O)N[C@H](C(=O)N[C@@H](CCCCNC(=N)N)C(=O)N[C@@H](CCCCN)C(=O)N[C@@H](CC(N)=O)C(=O)N[C@@H](Cc1ccccc1)C(=O)N[C@H](C(=O)N1CCC[C@H]1C(=O)N[C@H](C(=O)N[C@@H](CC(=O)O)C(=O)N[C@H](C(=O)NCC(=O)N1[C@H](C(=O)N[C@@H](Cc2ccccc2)C(=O)N[C@@H](C)C(=O)N[C@@H](Cc2ccccc2)C(N)=O)C[C@@H]2CCCC[C@@H]21)C(C)C)[C@@H](C)O)C(C)C)C(C)C)C(C)C)[C@@H](C)O)C(C)C` [SEQ ID NO: 658], in data set [4], the AUC0-inf is 17000 ng·h/mL, the AUC0-t was found to be 16900 ng·h/mL, the MRT amounted to 25.2 min and the Vd is 0.174 L/kg. Further, in data set [4], the clearance was 6.65 mL/min/kg and the half-life is 48 min.
On to `CC(=O)N[C@@H](Cc1c[nH]c2ccccc12)C(=O)N[C@H](C(=O)N[C@H](C(=O)N[C@@H](Cc1cnc[nH]1)C(=O)N[C@@H](CCCN=C(N)N)C(=O)N[C@@H](CC(C)C)C(=O)N[C@@H](C)C(=O)NCC(=O)N[C@@H](CC(C)C)C(=O)N[C@@H](CC(C)C)C(=O)N[C@@H](CO)C(=O)N[C@@H](CCCN=C(N)N)C(=O)N[C@@H](CO)C(=O)NCC(=O)NCC(=O)N[C@H](C(=O)N[C@H](C(=O)N[C@@H](CCCN=C(N)N)C(=O)N[C@@H](CCCCN)C(=O)N[C@@H](CC(N)=O)C(=O)N[C@@H](Cc1ccccc1)C(=O)N[C@H](C(=O)N1CCC[C@H]1C(=O)N[C@H](C(=O)N[C@@H](CC(=O)O)C(=O)N[C@H](C(=O)NCC(=O)N1CCC[C@H]1C(=O)N[C@@H](Cc1ccccc1)C(=O)N[C@@H](C)C(=O)N[C@@H](Cc1ccccc1)C(N)=O)C(C)C)[C@@H](C)O)C(C)C)C(C)C)C(C)C)[C@@H](C)O)C(C)C` [SEQ. ID NO: 7], for which, in data set [1], the solubility in words result is “relatively soluble”.
Molecule `CC(=O)N[C@@H](Cc1c[nH]c2ccccc12)C(=O)N[C@H](C(=O)N[C@H](C(=O)N[C@@H](Cc1c[nH]cn1)C(=O)N[C@@H](CCCNC(N)=O)C(=O)N[C@@H](CC(C)C)C(=O)N[C@@H](C)C(=O)NCC(=O)N[C@@H](CC(C)C)C(=O)N[C@@H](CC(C)C)C(=O)N[C@@H](CO)C(=O)N[C@@H](CCCNC(N)=O)C(=O)N[C@@H](CO)C(=O)NCC(=O)NCC(=O)N[C@H](C(=O)N[C@H](C(=O)N[C@@H](CCCCNC(=N)N)C(=O)N[C@@H](CCCCN)C(=O)N[C@@H](CC(N)=O)C(=O)N[C@@H](Cc1ccccc1)C(=O)N[C@H](C(=O)N1CCC[C@H]1C(=O)N[C@H](C(=O)N[C@@H](CC(=O)O)C(=O)N[C@H](C(=O)NCC(=O)N1CCC[C@H]1C(=O)N[C@@H](Cc1cccc2ccccc12)C(=O)N[C@@H](C)C(=O)N[C@@H](Cc1ccccc1)C(N)=O)C(C)C)[C@@H](C)O)C(C)C)C(C)C)C(C)C)[C@@H](C)O)C(C)C` [compound 674] (Ac-WVTH[Cit]LAGLLS[Cit]SGGVV[hArg]KNFVPTDVGP[1Nal]AF-NH2) gave a Ki in data set [5] (Table 3A) of 0.64 nM. The IC50 on CGRP1 receptor (Table 2A) lay in the range of 1.31 to 1.51 nM.
Consider `CC(=O)N[C@@H](Cc1c[nH]c2ccccc12)C(=O)N[C@H](C(=O)N[C@H](C(=O)N[C@@H](Cc1cnc[nH]1)C(=O)N[C@@H](CCCNC(N)=O)C(=O)N[C@@H](CC(C)C)C(=O)N[C@@H](C)C(=O)NCC(=O)N[C@@H](CC(C)C)C(=O)N[C@@H](CC(C)C)C(=O)N[C@@H](CO)C(=O)N[C@@H](CCCNC(N)=O)C(=O)N[C@@H](CO)C(=O)NCC(=O)NCC(=O)N[C@H](C(=O)N[C@H](C(=O)N[C@@H](CCCCNC(=N)N)C(=O)N[C@@H](CCCCN)C(=O)N[C@@H](CC(N)=O)C(=O)N[C@@H](Cc1ccccc1)C(=O)N[C@H](C(=O)N1CCC[C@H]1C(=O)N[C@H](C(=O)N[C@@H](CC(=O)O)C(=O)N[C@H](C(=O)NCC(=O)N1CCC[C@H]1C(=O)N[C@@H](Cc1ccccc1)C(=O)N[C@@H](C)C(=O)N[C@@H](Cc1ccccc1)C(N)=O)C(C)C)[C@@H](C)O)C(C)C)C(C)C)C(C)C)[C@@H](C)O)C(C)C` [compound 739], for which, in data set [5] (Table 3A), the Ki was 0.53 nM.
“Ac-WVTHRLAGLLSRSGGVVKNNFVPTDVGPFAF-NH2 [compound 5]”: the Ki in data set [5] (Table 3B) amounted to 0.06 nM. Also, the 50% inhibitory concentration (IC50) on CGRP1 receptor (Table 3, unconjugated CGRP peptide analogs, n = 2-4) was 0.14 nM; on CGRP1 receptor (Table 4, 20 k PEG-conjugated vs unconjugated peptides, n = 2-4), 0.14 nM.
The molecule “Ac-WVTHRLAGLLSRSGGVVKNNFVPTDVGPFAF-NH2 [compound 684]” gave a Ki in data set [5] (Table 3B) of 0.08 nM.
The same measure, in the same setting: to “Ac-WVTHRLAGLLSRSGGVVRCNFVPTDVGPFAF-NH2 [compound 680]” belongs 0.58 nM.
The same measure, in the same setting: under H-FVPTDVAPFAF-NH2 [compound 717] stands greater than 1000 nM.
